Reference: patent US8106039B2, “Metal complex phosphatidyl-inositol-3-kinase inhibitors” (The Trustees Of The University Of Pennsylvania, priority 2008, dated 2012)

How the values were obtained:
[1] = target: T1, human PI3Kγ catalytic domain (Homo sapiens, UniProt P48736); assay: PI3K Kinase-Glo assay; format: biochemical; conditions: for IC50: 1.4 pmoles PI3K, FIG. 3A, read-out: IC50 PI3Kγ inhibition
T1 construct: made in house; host or cells: baculovirus expression (virus obtained from the MRC, United Kingdom)
Method: PI3K Kinase-Glo Assay. Recombinantly expressed human PI3Kγ catalytic domain was preincubated with various concentration of inhibitors with a final DMSO concentration of 2% in reaction buffer (20 mM Tris pH 7.5, 100 mM NaCl, 10 mM MgCl2) for 1 hour at room temperature before this mixture was added to a solution of 0.1 mg/mL D-myo-Phosphatidylinositol 4,5-biphosphate (PtdIns (4,5)P2, Echelon Biosciences) and 10 μM ATP. 14 pmoles PI3K was used in compounds DW12, DW12Me, EAd125 comparison and 1.4 pmoles PI3K was used for compounds E5, E5E2, E5E1 measurements. The kinase reaction was carried out in a 50 μL final volume in a 96-well microtiter plate at 37° C. for 3 hours before 50 μL Kinase-Glo® (Promega) developing solution was added into the mixture to generate a luminescence signal. The signal was recorded using the PerkinElmer Wallac 1420 luminometer using a luminescence filter. Data were processed and IC50 values were derived from using 2% DMSO and with no kinase as controls and a sigmoidal dose response curve fitting by GraphPad Prism.

[2] = system: phospho-AKT in a melanoma cell line; assay: Western blot analysis of phospho-AKT in melanoma cells; format: cell-based, human; conditions: FIG. 4A
Text: Western Blot Analysis. Proteins were extracted and blotted for as described in (41). […] Antibodies to phospho-AKT and total AKT were from Cell Signaling Technology, (Beverly, Mass.). The monoclonal antibody to β-actin was from Sigma.

[3] = system: 1205Lu melanoma cell line; assay: Cell proliferation (MTT) assay; format: cell-based, human; conditions: increasing concentrations, 72 hours, FIG. 4B
Method: Cell Proliferation (MTT) Assay. Cells were plated into a 96-well plate at a density of 2.5×10^4 cells per ml and left to grow overnight. Cells were treated with increasing concentrations of E5E1 (0.03-30 μM), […] or LY 294002 (Calbiochem, San Diego, Calif.) (0.01-30 μM) in triplicate. In each instance cells were grown for 72 hours before being treated with 20 μl of MTT for 3 hours (Sigma). After this time, the media was rapidly removed and the MTT crystals were solubilized using DMSO. The resulting absorbance was read in a plate reader at 560 nm. Absorbance readings were subtracted from the value of blank wells, the reduction in cell growth was calculated as a percentage of control absorbance in the absence of any drug.

[4] = system: melanoma cells grown as 3D collagen-implanted spheroids; assay: 3D spheroid growth / invasion; format: cell-based, human; conditions: 30 μM; 72 hours; FIG. 4C
Method: 3D Spheroid Growth. Melanoma spheroids were prepared using the liquid overlay method. Briefly, […] of melanoma cells (25,000 cells per ml) were added to a 96-well plate coated with 1.5% agar (Difco, Sparks MD). Plates were left to incubate for 72 hours, by which time cells had organized into 3D spheroids. Spheroids were then harvested using a P1000 pipette. The media was removed and the spheroids were implanted into a gel of bovine collagen I containing EMEM, L-glutamine and 2% FBS. Normal 2% melanoma media was overlaid on top of the solidified collagen. Spheroids were treated with either E5E1 (10-30 μM), or E5E2 (10-30 μM), before being left to grow for 72 hours. Spheroids were then washed twice in PBS before being treated with calcein-AM, ethidium bromide (Molecular Probes, Eugene, Oreg.) for 1 hour at 37° C., according to the manufacturer's instruction. After this time, pictures of the invading spheroids were taken using a Nikon-300 inverted fluorescence microscope.

BRAF^WT = BRAF^WT (Homo sapiens, UniProt P15056); assay: BRAF kinase assay (wild type); format: biochemical
Method: (§1) BRAF kinase assay—Recombinantly expressed GST-MEK diluted in TTBS buffer (20 mM Tris pH 7.5, 150 mM NaCl, 0.05% TWEEN-20) to 50 μg/mL in a volume of 100 μL was bound to the wells of a 96-well glutathione coated plate (Pierce Biotechnology). 1 μL of compound with 2× serial dilutions in a 100% DMSO stock solution were added to a mixture of 50 μL of a buffer containing 50 mM HEPES pH 7.0 with 0.7 pmoles of BRAF kinase. This mixture was incubated at room temperature for 1 hour before it was added into the GST-MEK bound wells of the 96-well plate. An additional 50 μL of phosphorylation buffer (50 mM HEPES pH 7.0, 200 mM NaCl, 10 mM MgCl2, 200 μM ATP) was added into the well mixture to start the kinase reaction at 37° C. for 30 min with intermittent shaking. The kinase reaction was stopped by extensive washing with TTBS buffer and a 1:5000 dilution of Anti-phospho-MEK1 (Ser218/222)/MEK2 (Ser222/226) monoclonal antibody (Millipore) in TTBS was subsequently added into the wells and incubated for 1 hour with shaking. Goat Anti-Rabbit IgG (H+L)-HRP Conjugate (BioRad Laboratories) in a 1:5000 dilution was added into the wells to incubate at room temperature with shaking. Finally, the SuperSignal ELISA Pico chemiluminescent substrate (Pierce Biotechnology) was added into the wells. The luminescence signal was recorded with a luminescence filter using a Wallac 1420 luminometer (PerkinElmer).

BRAF^V600E = BRAF^V600E (Homo sapiens, UniProt P15056, V600E); assay: BRAF kinase assay (V600E); format: biochemical; conditions: inhibitor concentration of 4 μM; FIG. 3B
Method: as §1

PAK1 = PAK1 (Homo sapiens, UniProt Q13153); assay: PAK1 kinase assay; format: biochemical; conditions: inhibitor concentration of 4 μM; FIG. 3B
Method: PAK1 kinase assay—Kinase assays were performed using labeled γ-P^32 ATP and the incorporation of labeled phosphate onto the myelin basic protein (MBP) substrate was monitored. Different concentrations of compound inhibitor were incubated with 0.1 nM PAK1 kinase in 20 mM MOPS pH 7, 30 mM MgCl2, 1 mM EDTA, 0.8 μg/μL bovine serum albumin, 5% DMSO (resulting from the inhibitor stock solution), in the presence of 25 μg of MBP substrate for 20 minutes. Reactions were initiated by adding ATP to a final concentration of 1 μM including 0.2 μCi/μL γ-^32P ATP to a final volume of 25 μL. The reactions were terminated by spotting 17.5 μL onto a circular P81 phosphocellulose paper (diameter 2.1 cm), followed by washing three times with 0.75% phosphoric acid and one time with acetone. The dried P81 papers were transferred to scintillation vials and 4 ml of scintillation cocktail was added. The counts per minute (CPM) were measured with a scintillation counter and the enzyme activity in the presence of the inhibitor was calculated as a percentage of the control sample corrected by the background.

MST1 = target: T2, MST1 (Homo sapiens, UniProt Q13043); assay: MST1 kinase assay; format: biochemical; conditions: inhibitor concentration of 4 μM; FIG. 3B
T2 sequence (Q13043 1-487): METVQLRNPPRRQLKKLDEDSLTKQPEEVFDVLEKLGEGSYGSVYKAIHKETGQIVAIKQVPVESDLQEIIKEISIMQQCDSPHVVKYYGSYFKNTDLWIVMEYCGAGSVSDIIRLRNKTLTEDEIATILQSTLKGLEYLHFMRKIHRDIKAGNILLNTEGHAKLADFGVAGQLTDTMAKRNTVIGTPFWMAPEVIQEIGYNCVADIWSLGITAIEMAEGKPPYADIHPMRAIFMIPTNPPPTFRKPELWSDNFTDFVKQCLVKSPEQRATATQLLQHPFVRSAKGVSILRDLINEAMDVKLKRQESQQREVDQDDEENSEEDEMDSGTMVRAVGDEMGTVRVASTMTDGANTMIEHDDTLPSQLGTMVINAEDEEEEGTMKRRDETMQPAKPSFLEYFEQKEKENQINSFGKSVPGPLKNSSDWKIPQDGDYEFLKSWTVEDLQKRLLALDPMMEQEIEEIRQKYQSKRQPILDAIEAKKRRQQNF
Method: MST1 kinase assay—Kinase assays were performed using labeled γ-P^32 ATP and the incorporation of labeled phosphate onto the substrate FOXO was monitored. Kinase assays were performed using kinase buffer containing 10 mM Tris pH 7.5, 10 mM MgCl2, 1 mM dithiothreitol (DTT), 1 mM phenylmethylsulfonyl fluoride (PMSF) and a cocktail containing phosphatase inhibitor. 5 μCi of labeled γ-P^32 ATP and a final concentration of 200 μM of ATP were used for each reaction. 10 nM of the enzyme was pre-incubated for 30 min with various concentrations of inhibitor and an equivalent amount of DMSO was used as a control. After 30 min of incubation of the enzyme with the inhibitor, 1 μg of substrate was added. The reaction was initiated by addition of ATP. All reactions were incubated at 37° C. for 30 min. and then stopped with SDS gel-loading dye; subsequently samples were heated for 3 min and loaded onto a 16% Tris-glycine gel (Novagen). The bands were visualized using high sensitivity Kodak film and the results were quantified using the software ImageJ.

[5] = target: BRAF mutants (Leu513 mutated to valine and alanine); assay: BRAF kinase assay with site directed mutants; format: biochemical, human; conditions: FIG. 6B
Method: as §1, with “(PerkinElmer). […]” for “(PerkinElmer).”

T1 sequence (P48736 144-1102 limits assumed): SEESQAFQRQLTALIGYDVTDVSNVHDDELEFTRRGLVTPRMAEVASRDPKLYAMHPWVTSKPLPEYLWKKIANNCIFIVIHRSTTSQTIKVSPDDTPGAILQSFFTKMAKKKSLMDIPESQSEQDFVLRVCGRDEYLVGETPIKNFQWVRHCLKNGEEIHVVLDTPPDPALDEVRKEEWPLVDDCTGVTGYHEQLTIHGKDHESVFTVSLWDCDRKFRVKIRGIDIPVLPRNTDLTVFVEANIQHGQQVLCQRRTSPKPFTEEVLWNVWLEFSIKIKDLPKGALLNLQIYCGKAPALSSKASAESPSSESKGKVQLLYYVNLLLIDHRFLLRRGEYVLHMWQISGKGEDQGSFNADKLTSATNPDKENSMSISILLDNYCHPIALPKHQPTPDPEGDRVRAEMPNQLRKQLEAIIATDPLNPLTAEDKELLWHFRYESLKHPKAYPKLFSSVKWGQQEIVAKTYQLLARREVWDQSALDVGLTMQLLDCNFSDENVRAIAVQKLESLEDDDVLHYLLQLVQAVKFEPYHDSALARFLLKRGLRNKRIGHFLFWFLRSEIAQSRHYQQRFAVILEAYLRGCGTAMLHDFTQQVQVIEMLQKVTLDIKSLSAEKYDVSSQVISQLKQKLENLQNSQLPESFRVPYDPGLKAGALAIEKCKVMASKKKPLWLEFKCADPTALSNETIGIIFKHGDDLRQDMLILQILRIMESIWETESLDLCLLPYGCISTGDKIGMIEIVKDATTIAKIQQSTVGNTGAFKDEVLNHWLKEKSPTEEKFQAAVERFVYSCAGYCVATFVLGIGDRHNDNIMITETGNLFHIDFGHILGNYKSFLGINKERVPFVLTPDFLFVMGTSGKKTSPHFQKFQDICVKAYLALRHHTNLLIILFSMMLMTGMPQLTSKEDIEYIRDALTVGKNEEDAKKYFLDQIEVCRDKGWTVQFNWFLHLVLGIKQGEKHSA
BRAF^WT, sequence (P15056 whole entry): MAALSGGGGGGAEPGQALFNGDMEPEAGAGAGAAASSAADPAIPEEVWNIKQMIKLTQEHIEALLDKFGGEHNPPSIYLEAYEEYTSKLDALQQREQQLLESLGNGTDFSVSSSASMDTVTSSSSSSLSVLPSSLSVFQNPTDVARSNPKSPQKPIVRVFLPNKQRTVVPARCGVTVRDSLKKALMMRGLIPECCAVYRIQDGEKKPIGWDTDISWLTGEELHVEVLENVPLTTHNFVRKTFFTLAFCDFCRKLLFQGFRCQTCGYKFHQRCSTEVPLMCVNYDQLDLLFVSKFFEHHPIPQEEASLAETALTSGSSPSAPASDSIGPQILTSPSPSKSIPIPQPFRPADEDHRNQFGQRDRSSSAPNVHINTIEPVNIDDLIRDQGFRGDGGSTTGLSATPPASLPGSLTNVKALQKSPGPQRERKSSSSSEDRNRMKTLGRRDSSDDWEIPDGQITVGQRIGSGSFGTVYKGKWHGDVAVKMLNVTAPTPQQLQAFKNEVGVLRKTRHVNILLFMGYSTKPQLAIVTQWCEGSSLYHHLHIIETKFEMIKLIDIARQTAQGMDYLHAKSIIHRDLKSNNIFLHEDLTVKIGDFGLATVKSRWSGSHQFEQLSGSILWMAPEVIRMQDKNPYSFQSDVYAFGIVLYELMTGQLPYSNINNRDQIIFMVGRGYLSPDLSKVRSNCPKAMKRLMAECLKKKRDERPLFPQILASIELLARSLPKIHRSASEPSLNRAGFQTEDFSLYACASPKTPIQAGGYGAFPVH
BRAF^V600E, sequence (P15056 whole entry V600E): as the sequence (P15056 whole entry) above, with V600E counted along it
PAK1, sequence (Q13153 whole entry): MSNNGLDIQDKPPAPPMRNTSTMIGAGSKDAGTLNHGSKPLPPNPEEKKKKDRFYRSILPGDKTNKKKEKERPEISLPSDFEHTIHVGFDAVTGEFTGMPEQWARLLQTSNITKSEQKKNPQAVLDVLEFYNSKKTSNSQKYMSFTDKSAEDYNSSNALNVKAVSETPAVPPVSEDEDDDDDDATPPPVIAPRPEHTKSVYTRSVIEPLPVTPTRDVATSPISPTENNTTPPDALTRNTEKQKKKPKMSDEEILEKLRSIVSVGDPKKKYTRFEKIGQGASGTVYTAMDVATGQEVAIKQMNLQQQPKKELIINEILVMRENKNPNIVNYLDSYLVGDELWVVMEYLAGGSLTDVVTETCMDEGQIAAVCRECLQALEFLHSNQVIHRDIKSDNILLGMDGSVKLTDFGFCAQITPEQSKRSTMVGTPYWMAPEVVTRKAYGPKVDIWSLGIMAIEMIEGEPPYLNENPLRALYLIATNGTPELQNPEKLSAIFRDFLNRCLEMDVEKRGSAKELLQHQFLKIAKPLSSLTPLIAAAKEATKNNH

Compound: CN1C(=O)c2c(c3c4cc(O)ccc4[n]4c3c3c2cc(F)c[n+]3[Ru-2]42356([C]#[O+])[CH]4[CH]2[CH]3[C]5(C(=O)NC(C)(CO)CO)[CH]46)C1=O (single isomer, unassigned) [Compound E5E1]
- IC50 [1]: 41 nM
- block of constitutive activity of AKT (phospho-AKT) [2]: block the constitutive activity of AKT in a concentration dependent manner
- cell proliferation (MTT) [3]: inhibition of cell proliferation
- invasion of melanoma cells from 3D spheroids [4]: completely blocked

Compound: CN1C(=O)c2c(c3c4cc(O)ccc4[n]4c3c3c2cc(F)c[n+]3[Ru-2]42356([C]#[O+])[CH]4[CH]2[CH]3[C]5(C(=O)NC(C)(CO)CO)[CH]46)C1=O (single isomer, unassigned) [Compound E5E2]
- IC50 [1]: 39 nM
- PI3K inhibition / inhibitory potency (in words) ([1]; comparison among the inhibitors, FIG. 2C, FIG. 9): potent
- inhibition of BRAF^WT (BRAF^WT; inhibitor concentration of 4 μM, FIG. 3B): did not show appreciable inhibition
- inhibition against wild-type BRAF (BRAF^WT; inhibitor concentration of 10 μM, FIG. 6B): no detectable inhibition
- inhibition of BRAF^V600E (BRAF^V600E): did not show appreciable inhibition
- inhibition of PAK1 (PAK1): did not show appreciable inhibition
- inhibition of MST1 (MST1): did not show appreciable inhibition
- IC50 [5]: ~10000 nM

Compound: O=c1cc(N2CCOCC2)oc2c(-c3ccccc3)cccc12 [LY294002, 2-(4-morpholinyl)-8-phenyl-4H-1-benzopyran-4-one, reference compound]
- cell proliferation (MTT) [3]: inhibition of cell proliferation
